Data: PubChem BioAssay AID179 (DTP/NCI, 2004)
Active and inactive are the calls of the source.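 Rule for the calls: active = compounds giving half or more protection of infected cells from virus-caused growth loss, again on retest; inactive = the rest.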

Test system: CEM cells HIV-1 protection, formazan growth assay
Assay: NCI AIDS Antiviral Assay
Conditions: for IC50: measured here: growth of uninfected CEM cells
Outline: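 Protection of CEM cells against HIV-1 was scored from cell growth (soluble formazan) across five concentrations, with parallel uninfected cells. Lack of protection may reflect toxicity.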

**Q.** For `C=C[C@@]1(C)CCC2(O)C(CCC3C2(C)CCC[C@@]3(C)COC(=O)CC(=O)OC)C1` (some centres not stated), which EC50 is on record?
**A.** > 24.5 µM

**Q.** And the IC50?
**A.** > 24.5 µM

**Q.** Which EC50 does the source give for `N#CC(c1nc2ccccc2nc1Cl)S(=O)(=O)c1ccccc1` (configuration not stated) here?
**A.** > 105 µM

**Q.** And the IC50?
**A.** 6.76 µM

**Q.** Which results are given for `Cc1cc2c(cc1O)CC[C@@H]1[C@@H]2CC[C@]2(C)[C@@H](O)CC[C@@H]12`?
**A.** EC50: > 200 µM; IC50: 4.07 µM

**Q.** How did the EC50 turn out when `O=C(OCCN1CCCC1)c1cc2ccccc2n1Cc1ccccc1` was run?
**A.** > 200 µM

**Q.** What about the IC50 of the same compound?
**A.** 36.3 µM

**Q.** What does the source list for `c1ccc(N2CCN(CCCN3CCc4c([nH]c5ccccc45)C3c3cccnc3)CC2)cc1` (configuration not stated)?
**A.** EC50: > 2.19 µM; IC50: > 2.19 µM

**Q.** Which results are given for `O=C(O)c1cccc(S(=O)(=O)NN2C(=O)CSC2c2c(O)ccc3ccccc23)c1` (configuration not stated)?
**A.** EC50: > 200 µM; IC50: 29.5 µM

**Q.** `CN1C/C(=C\c2cccs2)C(=O)/C(=C/c2cccs2)C1` was tested. Which EC50 did it give?
**A.** > 200 µM

**Q.** What about the IC50 of the same compound?
**A.** 14.1 µM

**Q.** Which results are given for `O=C1CC=CN1CCn1c(=S)[nH]c2ccccc21`?
**A.** EC50: > 501 µM; IC50: > 501 µM

**Q.** Which EC50 does the source give for `O=C(/C=C/c1ccc(O)c(O)c1)OCCCOC(=O)/C=C/c1ccc(O)c(O)c1` here?
**A.** > 100 µM

**Q.** And the IC50?
**A.** 13.8 µM

**Q.** `Cc1ccc(Nc2nc(NS(=O)(=O)c3cc(C)c(Cl)cc3S)n(C)n2)cc1` was tested. Which EC50 did it give?
**A.** > 200 µM

**Q.** What about the IC50 of the same compound?
**A.** 105 µM

**Q.** With `Cc1cnnc2c3ccccc3nn12` as the compound, how does the EC50 read?
**A.** > 123 µM

**Q.** What about the IC50 of the same compound?
**A.** > 123 µM

**Q.** For `COc1cccc(C(=O)N[C@@H]2[C@H](O)[C@@H](CO)O[C@H]2n2cnc3c(N)ncnc32)c1`, which EC50 is on record?
**A.** > 200 µM

**Q.** What about the IC50 of the same compound?
**A.** > 200 µM

**Q.** Which EC50 does the source give for `CCC[CH2][Sn]1([CH2]CCC)[O]C(=O)C2C(C(=O)[O]1)C1(Cl)C(Cl)=C(Cl)C2(Cl)C1(Cl)Cl` (configuration not stated) here?
**A.** > 200 µM

**Q.** What about the IC50 of the same compound?
**A.** 0.182 µM

**Q.** With `CSC(=NC(=O)c1ccccc1)SCCSC(=NC(=O)c1ccccc1)SC` as the compound, how does the EC50 read?
**A.** > 2.34 µM

**Q.** And the IC50?
**A.** > 2.34 µM

**Q.** Which EC50 does the source give for `NC(CS)C(=O)NCCNCCNc1ccc(NCCNCCNC(=O)C(N)CS)c2c1C(=O)c1c(O)ccc(O)c1C2=O` (configuration not stated) here?
**A.** > 200 µM

**Q.** And the IC50?
**A.** 13.5 µM

**Q.** How did the EC50 turn out when `CCOc1ccc(N=O)c(O)c1` was run?
**A.** > 200 µM

**Q.** And the IC50?
**A.** 3.98 µM

**Q.** `C=C(Br)CN(C(C)=O)C1CCCCC1` was tested. Which EC50 did it give?
**A.** > 200 µM

**Q.** And the IC50?
**A.** > 200 µM

**Q.** What does the source list for `COc1c2occc2c(OC(C)C(=O)O)c2c(O)cc(=O)oc12` (configuration not stated)?
**A.** EC50: > 282 µM; IC50: > 282 µM

**Q.** With `O=C1C(c2ccccc2)=C(c2ccccc2)[C@H](c2ccccc2)[C@]1(Cc1nnn(-c2ccc([N+](=O)[O-])cc2)c1N1CCOCC1)c1ccccc1` as the compound, how does the outcome read?
**A.** inactive

**Q.** Which results are given for `CCC1(CC)C(=O)N(C(=O)c2cc(OC)c(OC)c(OC)c2)N(C(=O)c2cc(OC)c(OC)c(OC)c2)C1=O`?
**A.** EC50: > 200 µM; IC50: 10.7 µM

**Q.** For `Nc1ncc(C[P+](c2ccccc2)(c2ccccc2)c2ccccc2)c(N)n1`, which EC50 is on record?
**A.** > 200 µM

**Q.** And the IC50?
**A.** > 200 µM

**Q.** `C(=C/c1nc2ccccc2o1)/c1ccc2c(c1)OCO2` was tested. Which EC50 did it give?
**A.** > 10.2 µM

**Q.** What about the IC50 of the same compound?
**A.** > 10.2 µM

**Q.** Which results are given for `O=C(O)c1cccc2cccc(-c3c4ccc(=O)c(O)c-4oc4c(O)c(O)ccc34)c12`?
**A.** EC50: 29.5 µM; IC50: 33.1 µM

**Q.** What does the source list for `COCn1c(C(=O)c2ccc(OC)cc2)cc2ccccc21`?
**A.** EC50: > 33.9 µM; IC50: > 33.9 µM

**Q.** Which results are given for `O=C(CN1C(=O)CC(c2ccccc2)(c2ccccc2)C1=O)N1CCN(CCO)CC1`?
**A.** EC50: > 200 µM; IC50: 151 µM

**Q.** With `CCOC(=O)C1Cc2c(n(C3CCCCC3)c(=O)n(C)c2=O)OC1c1ccccc1` (configuration not stated) as the compound, how does the EC50 read?
**A.** > 63.1 µM

**Q.** What about the IC50 of the same compound?
**A.** 29.5 µM

**Q.** How did the EC50 turn out when `Nc1nnc(CCC(=O)Nc2cc(Cl)ccc2Cl)n1N` was run?
**A.** > 8.71 µM

**Q.** And the IC50?
**A.** > 8.71 µM

**Q.** For `COc1ccccc1NCc1cccc2c(=O)c3ccc(Cl)cc3oc12`, which EC50 is on record?
**A.** > 151 µM

**Q.** What about the IC50 of the same compound?
**A.** 46.8 µM

**Q.** Which EC50 does the source give for `CCCC(C)(O)CCC(O)(CCC)CCC` (configuration not stated) here?
**A.** > 200 µM

**Q.** What about the IC50 of the same compound?
**A.** > 200 µM

**Q.** How did the outcome turn out when `Cn1cc(C(=O)/C(Cl)=C(\Cl)C(=O)O)c2ccccc21` was run?
**A.** inactive

**Q.** Which EC50 does the source give for `O=C1C(O)=C(c2ccccc2)S(=O)(=O)C1c1ccccc1` (configuration not stated) here?
**A.** > 200 µM

**Q.** And the IC50?
**A.** 79.4 µM

**Q.** Which results are given for `Nc1nc2c3c(ncn3CC(O)CO2)n1` (configuration not stated)?
**A.** EC50: > 9.55 µM; IC50: > 9.55 µM

**Q.** What does the source list for `CSC1=N/C(=C\c2cccs2)C(=O)N1CN1CCOCC1`?
**A.** EC50: > 200 µM; IC50: 38 µM

**Q.** What does the source list for `COc1ccc(N2C(=O)C(=O)C3(CCCCC3)C2=O)c2ccccc12`?
**A.** EC50: > 200 µM; IC50: > 200 µM

**Q.** What does the source list for `Cc1nc2ccc(Cl)cc2c(Cl)c1CCCl`?
**A.** EC50: > 200 µM; IC50: 10.7 µM

**Q.** What does the source list for `CCC(=O)NC(C(=O)NC(C(=O)NC(CC(C)C)C(O)CC(=O)NC(C)C(=O)NC(CC(C)C)C(O)CC(=O)O)C(C)C)C(C)C` (configuration not stated)?
**A.** EC50: > 7.59 µM; IC50: > 7.59 µM

**Q.** `Cn1cc(NC(=O)[C@@H]2CCC(N)=N2)cc1C(=O)NCCC(=N)N` was tested. Which outcome did it give?
**A.** inactive

**Q.** `COc1cc2c(c(OC)c1OC)-c1ccc(NCCCNc3ccc4c(cc3=O)C(NC(C)=O)CCc3cc(OC)c(OC)c(OC)c3-4)c(=O)cc1C(NC(C)=O)CC2` (configuration not stated) was tested. Which outcome did it give?
**A.** inactive

**Q.** `C=C(Cn1cnc2c(N)ncnc21)C(=O)OC` was tested. Which EC50 did it give?
**A.** > 107 µM

**Q.** What about the IC50 of the same compound?
**A.** 7.76 µM

**Q.** `Cc1nc(-c2ccccc2)c(C)n2c1nc1ccccc12` was tested. Which EC50 did it give?
**A.** > 200 µM

**Q.** And the IC50?
**A.** 28.8 µM

**Q.** For `CC(SC(=S)N1CCOCC1)c1cc2oc(=O)n(C)c2cc1Cl` (configuration not stated), which EC50 is on record?
**A.** > 10 µM

**Q.** And the IC50?
**A.** > 10 µM

**Q.** How did the outcome turn out when `O=C(NC12CC3CCC1CC(C3)C2)[C@@H]1CCCN1C(=O)OCc1ccccc1` (some centres not stated) was run?
**A.** inactive

**Q.** What does the source list for `CCN(CC)C1CS(=O)(=O)OC(c2ccccc2)=C1C` (configuration not stated)?
**A.** EC50: > 316 µM; IC50: 22.4 µM

**Q.** How did the outcome turn out when `CCC[CH2][Sn]([CH2]CCC)([CH2]CCC)[CH2]S(=O)(=O)O` was run?
**A.** inactive
